Key:
[1] = target: soluble human BACE1 catalytic domain (Homo sapiens (Human), UniProt P56817); test: BACE1 HTRF FRET Assay; format: biochemical; settings: Ki calculated from IC50 using the Cheng-Prusoff equation; QSY7-APPswe-Eu substrate, pH 5.0
Description: Na^+-Acetate pH 5.0; 1% Brij-35; Glycerol; Dimethyl Sulfoxide (DMSO); Recombinant human soluble BACE1 catalytic domain (>95% pure); APP Swedish mutant peptide substrate (QSY7-APP^swe-Eu): QSY7-EISEVNLDAEFC-Europium-amide.
A homogeneous time-resolved FRET assay can be used to determine IC50 values for inhibitors of the soluble human BACE1 catalytic domain. This assay monitors the increase of 620 nm fluorescence that resulted from BACE1 cleavage of an APPswedish APP^swe mutant peptide FRET substrate (QSY7-EISEVNLDAEFC-Europium-amide). This substrate contains an N-terminal QSY7 moiety that serves as a quencher of the C-terminal Europium fluorophore (620 nm Em). In the absence of enzyme activity, 620 nm fluorescence is low in the assay and increased linearly over 3 hours in the presence of uninhibited BACE1 enzyme Inhibition of BACE1 cleavage of the QSY7-APP^swe-Eu substrate by inhibitors is manifested as a suppression of 620 nm fluorescence.
Varying concentrations of inhibitors at 3× the final desired concentration in a volume of 10 ul are preincubated with purified human BACE1 catalytic domain (3 nM in 10 μl) for 30 minutes at 30° C. in reaction buffer containing 20 mM Na-Acetate pH 5.0, 10% glycerol, 0.1% Brij-35 and 7.5% DSMO. Reactions are initiated by addition of 10 μl of 600 nM QSY7-APP^swe-Eu substrate (200 nM final) to give a final reaction volume of 30 μl in a 384 well Nunc HTRF plate. The reactions are incubated at 30° C. for 1.5 hours. The 620 nm fluorescence is then read on a Rubystar HTRF plate reader (BMG Labtechnologies) using a 50 millisecond delay followed by a 400 millisecond acquisition time window Inhibitor IC50 values are derived from non-linear regression analysis of concentration response curves. Ki values are then calculated from IC50 values using the Cheng-Prusoff equation using a previously determined […] of 8 μM for the QSY7-APP^swe-Eu substrate at BACE1.

[2] = target: purified human autoBACE-2 (Homo sapiens (Human), UniProt Q9Y5Z0); test: BACE-2 Assay (BACE-HTRF assay); format: biochemical; settings: Ki calculated from IC50 using the Cheng-Prusoff equation; QSY7-EISEVNLDAEFC-Eu-amide substrate, pH 5.0; read-out: BACE2 Ki
Description: Inhibitor IC50s at purified human autoBACE-2 are determined in a time-resolved endpoint proteolysis assay that measures hydrolysis of the QSY7-[…]-Eu-amide FRET peptide substrate (BACE-HTRF assay). […] DMSO is present at 5% final concentration in the assay. Following laser excitation of sample wells at 320 nm, the fluorescence signal at 620 nm is collected for 400 ms following a 50 μs delay on a RUBYstar HTRF plate reader (BMG Labtechnologies). Raw RFU data is normalized to maximum (1.0 nM BACE/DMSO) and minimum (no enzyme/DMSO) RFU values. […] The Ki values are calculated from the IC50 using the Cheng-Prusoff equation.

Chain of soluble human BACE1 catalytic domain (P56817 75-416): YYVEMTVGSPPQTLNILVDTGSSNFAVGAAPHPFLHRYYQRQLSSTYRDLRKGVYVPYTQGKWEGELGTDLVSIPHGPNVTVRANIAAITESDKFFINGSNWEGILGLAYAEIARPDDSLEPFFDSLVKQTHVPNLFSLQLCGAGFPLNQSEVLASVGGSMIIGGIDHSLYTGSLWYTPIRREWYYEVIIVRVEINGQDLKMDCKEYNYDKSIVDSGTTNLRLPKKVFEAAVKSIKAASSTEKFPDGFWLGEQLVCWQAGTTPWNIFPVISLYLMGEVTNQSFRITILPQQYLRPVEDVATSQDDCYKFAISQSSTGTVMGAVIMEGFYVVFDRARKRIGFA

SMILES | Ki [1] [nM] | Ki [2] [nM]
CN1C(=N)N[C@@]2(CCOc3ccc(NC(=O)c4ccc(Cl)cn4)cc32)CS1(=O)=O [Example 1a] | 70 | 17
COc1ccc(C(=O)Nc2ccc3c(c2)[C@]2(CCO3)CS(=O)(=O)N(C)C(=N)N2)nc1 [Example 1b] | 233 | 130
COCC(=O)Nc1ccc2c(c1)[C@]1(CCO2)CS(=O)(=O)N(C)C(=N)N1 [Example 1c] | 2010 | 341
CN1C(=N)N[C@@]2(CCOc3ccc(NC(=O)C(F)F)cc32)CS1(=O)=O [Example 1d] | 2280 | 728
CN1C(=N)N[C@@]2(CCOc3ccc(NC(=O)c4ccc(OCF)cn4)cc32)CS1(=O)=O [Example 2a] | 91 | 59
Cc1nc(C(=O)Nc2ccc3c(c2)[C@]2(CCO3)CS(=O)(=O)N(C)C(=N)N2)co1 [Example 2b] | 142 | 20
CN1C(=N)N[C@@]2(CCOc3ccc(NC(=O)c4ccc(C#N)cn4)cc32)CS1(=O)=O [Example 2c] | 26 | 51
CN1C(=N)N[C@@]2(CCOc3ccc(NC(=O)c4ncc(C(F)(F)F)cn4)cc32)CS1(=O)=O [Example 2d] | 579 | 780
CN1C(=N)N[C@@]2(CCOc3ccc(NC(=O)c4ncc(Cl)cc4F)cc32)CS1(=O)=O [Example 2e] | 49 | 9
C#CCOc1cnc(C(=O)Nc2ccc3c(c2)[C@]2(CCO3)CS(=O)(=O)N(C)C(=N)N2)cn1 [Example 2f] | 13 | 138
CN1C(=N)N[C@@]2(CCOc3ccc(NC(=O)c4cnc(OCC(F)(F)F)cn4)cc32)CS1(=O)=O [Example 2g] | 70 | 699
C#CCOc1ccc(C(=O)Nc2ccc3c(c2)[C@]2(CCO3)CS(=O)(=O)N(C)C(=N)N2)nc1 [Example 2h] | 33 | 313
COc1cnc(C(=O)Nc2ccc3c(c2)[C@]2(CCO3)CS(=O)(=O)N(C)C(=N)N2)c(C)c1 [Example 2i] | 168 | 29
COc1cnc(C(=O)Nc2ccc3c(c2)[C@]2(CCO3)CS(=O)(=O)N(C)C(=N)N2)c(C)n1 [Example 2j] | 294 | 160
Cc1cc(C#N)cnc1C(=O)Nc1ccc2c(c1)[C@]1(CCO2)CS(=O)(=O)N(C)C(=N)N1 [Example 2k] | 15 | 26
COc1cnc(C(=O)Nc2ccc3c(c2)[C@]2(CCO3)CS(=O)(=O)N(C)C(=N)N2)cn1 [Example 2l] | 212 | 254
CN1C(=N)N[C@@]2(CCOc3ccc(NC(=O)c4cnc(C(F)(F)F)cn4)cc32)CS1(=O)=O [Example 2m] | 303 | 1150
CN1C(=N)N[C@@]2(CCOc3ccc(NC(=O)c4cc5ccccn5n4)cc32)CS1(=O)=O [Example 2n] | 1490 | 337
CN1C(=N)N[C@@]2(CCOc3ccc(NC(=O)c4ccc(C(F)(F)F)cn4)cc32)CS1(=O)=O [Example 2o] | 77 | 283
CN1C(=N)N[C@@]2(CCOc3ccc(NC(=O)c4ccn(C(F)F)n4)cc32)CS1(=O)=O [Example 2p] | 20 | 3
Cc1nc(C(=O)Nc2ccc3c(c2)[C@]2(CCO3)CS(=O)(=O)N(C)C(=N)N2)no1 [Example 2q] | 367 | 31
CN1C(=N)N[C@@]2(CCOc3ccc(NC(=O)c4cn5cc(C#N)ccc5n4)cc32)CS1(=O)=O [Example 2r] | 604 | 6910
CN1C(=N)N[C@@]2(CCOc3ccc(NC(=O)c4cnsn4)cc32)CS1(=O)=O [Example 2s] | 240 | 46
CN1C(=N)N[C@@]2(CCOc3ccc(NC(=O)c4ccc(F)cn4)cc32)CS1(=O)=O [Example 2t] | 205 | 31
CN1C(=N)N[C@@]2(CCOc3ccc(NC(=O)c4ccc(OC(F)F)cn4)cc32)CS1(=O)=O [Example 2u] | 44 | 166
CN1C(=N)N[C@@]2(CCOc3ccc(NC(=O)c4ccc(OC(F)(F)F)cn4)cc32)CS1(=O)=O [Example 2v] | 52 | 261

SMILES | Ki [1] [nM] | Ki [2] [nM]
CN1C(=N)N[C@@]2(CCOc3ccc(NC(=O)c4cnc(OCCF)cn4)cc32)CS1(=O)=O [Example 2w] | 229 | 572
CN1C(=N)N[C@@]2(COCc3ccc(NC(=O)c4ccc(Cl)cn4)cc32)CS1(=O)=O [Example 3a] | 272 | 58
COc1ccc(C(=O)Nc2ccc3c(c2)[C@]2(COC3)CS(=O)(=O)N(C)C(=N)N2)nc1 [Example 3b] | 1160 | 354
CN1C(=N)N[C@@]2(CCCc3ccc(NC(=O)c4ccc(Cl)cn4)cc32)CS1(=O)=O [Example 4a] | 58 | 15
COc1ccc(C(=O)Nc2ccc3c(c2)[C@]2(CCC3)CS(=O)(=O)N(C)C(=N)N2)nc1 [Example 4b] | 228 | 67
COCC(=O)Nc1ccc2c(c1)[C@]1(CCC2)CS(=O)(=O)N(C)C(=N)N1 [Example 4c] | 2120 | 260
CN1C(=N)N[C@@]2(CCCc3ccc(NC(=O)C(F)F)cc32)CS1(=O)=O [Example 4d] | 2580 | 515
CN1C(=N)N[C@@]2(CCCc3ccc(NC(=O)c4cn5cc(C#N)ccc5n4)cc32)CS1(=O)=O [Example 5a] | 636 | 1130
CN1C(=N)N[C@@]2(CCCc3ccc(NC(=O)c4ccc(F)cn4)cc32)CS1(=O)=O [Example 5b] | 192 | 28
CN1C(=N)N[C@@]2(CCCc3ccc(NC(=O)c4ccc(OC(F)F)cn4)cc32)CS1(=O)=O [Example 5c] | 59 | 126
CN1C(=N)N[C@@]2(CCCc3ccc(NC(=O)c4ccc(OC(F)(F)F)cn4)cc32)CS1(=O)=O [Example 5d] | 55 | 219
CN1C(=N)N[C@@]2(CCCc3ccc(NC(=O)c4cnc(OCCF)cn4)cc32)CS1(=O)=O [Example 5e] | 257 | 487
Cc1nc(C(=O)Nc2ccc3c(c2)[C@]2(CCC3)CS(=O)(=O)N(C)C(=N)N2)no1 [Example 5f] | 314 | 16
CN1C(=N)N[C@@]2(CCCc3ccc(NC(=O)c4ccc(OCF)cn4)cc32)CS1(=O)=O [Example 5g] | 77 | 33
Cc1nc(C(=O)Nc2ccc3c(c2)[C@]2(CCC3)CS(=O)(=O)N(C)C(=N)N2)co1 [Example 5h] | 108 | 11
CN1C(=N)N[C@@]2(CCCc3ccc(NC(=O)c4ccc(C#N)cn4)cc32)CS1(=O)=O [Example 5i] | 19 | 44
CN1C(=N)N[C@@]2(CCCc3ccc(NC(=O)c4ncc(C(F)(F)F)cn4)cc32)CS1(=O)=O [Example 5j] | 468 | 423
CN1C(=N)N[C@@]2(CCCc3ccc(NC(=O)c4ncc(Cl)cc4F)cc32)CS1(=O)=O [Example 5k] | 54 | 8
C#CCOc1cnc(C(=O)Nc2ccc3c(c2)[C@]2(CCC3)CS(=O)(=O)N(C)C(=N)N2)cn1 [Example 5l] | 11 | 77
CN1C(=N)N[C@@]2(CCCc3ccc(NC(=O)c4cnc(OCC(F)(F)F)cn4)cc32)CS1(=O)=O [Example 5m] | 72 | 508
C#CCOc1ccc(C(=O)Nc2ccc3c(c2)[C@]2(CCC3)CS(=O)(=O)N(C)C(=N)N2)nc1 [Example 5n] | 42 | 221
COc1cnc(C(=O)Nc2ccc3c(c2)[C@]2(CCC3)CS(=O)(=O)N(C)C(=N)N2)c(C)c1 [Example 5o] | 119 | 17
COc1cnc(C(=O)Nc2ccc3c(c2)[C@]2(CCC3)CS(=O)(=O)N(C)C(=N)N2)c(C)n1 [Example 5p] | 224 | 123
Cc1cc(C#N)cnc1C(=O)Nc1ccc2c(c1)[C@]1(CCC2)CS(=O)(=O)N(C)C(=N)N1 [Example 5q] | 9 | 17
COc1cnc(C(=O)Nc2ccc3c(c2)[C@]2(CCC3)CS(=O)(=O)N(C)C(=N)N2)cn1 [Example 5r] | 144 | 177
